How the values were obtained:
[1] = target: T1, ΔppGalNAcT (Biomphalaria glabrata, UniProt S5S833); test: GalNAc transfer to acceptor peptide, reversed-phase HPLC at […] nm; assay type: biochemical; conditions: 40 nmol UDP-GalNAc in 20 μl, 10 mM MnCl2, 50 mM MES pH 7.0, 37 °C, 90 min, acceptor peptide 20 μg
T1 construct: catalytic part only: amino acids 1-26 and the lectin domain (477-600) removed; Sf9 insect cells, purified

[2] = target: T2, Bge-ppGalNAcT (Biomphalaria glabrata, UniProt S5S833); test: as above; assay type: biochemical; conditions: 40 nmol UDP-GalNAc in 20 μl, 10 mM MnCl2, 50 mM MES pH 7.0, 37 °C, 90 min, acceptor peptide 20 μg
T2 construct: without cytoplasmic tail and transmembrane domain (amino acids 1-26 removed); catalytic plus lectin domain
T2 sequence (S5S833 27-600): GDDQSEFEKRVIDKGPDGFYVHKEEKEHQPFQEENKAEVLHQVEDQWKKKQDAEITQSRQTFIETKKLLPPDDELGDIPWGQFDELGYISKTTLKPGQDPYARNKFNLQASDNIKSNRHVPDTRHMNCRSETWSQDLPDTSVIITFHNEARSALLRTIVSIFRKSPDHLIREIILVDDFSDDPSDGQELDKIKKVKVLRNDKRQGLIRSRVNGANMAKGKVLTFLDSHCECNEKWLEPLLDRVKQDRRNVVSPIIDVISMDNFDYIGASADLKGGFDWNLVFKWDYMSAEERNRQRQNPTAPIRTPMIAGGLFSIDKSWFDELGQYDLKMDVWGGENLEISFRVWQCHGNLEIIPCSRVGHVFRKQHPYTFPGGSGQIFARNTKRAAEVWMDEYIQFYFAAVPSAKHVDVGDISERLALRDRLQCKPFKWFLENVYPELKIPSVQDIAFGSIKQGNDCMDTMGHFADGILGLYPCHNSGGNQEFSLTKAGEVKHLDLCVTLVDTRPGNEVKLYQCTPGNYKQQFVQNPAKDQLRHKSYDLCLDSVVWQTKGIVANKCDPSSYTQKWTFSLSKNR

T1 sequence (S5S833 27-476, stated change not applied): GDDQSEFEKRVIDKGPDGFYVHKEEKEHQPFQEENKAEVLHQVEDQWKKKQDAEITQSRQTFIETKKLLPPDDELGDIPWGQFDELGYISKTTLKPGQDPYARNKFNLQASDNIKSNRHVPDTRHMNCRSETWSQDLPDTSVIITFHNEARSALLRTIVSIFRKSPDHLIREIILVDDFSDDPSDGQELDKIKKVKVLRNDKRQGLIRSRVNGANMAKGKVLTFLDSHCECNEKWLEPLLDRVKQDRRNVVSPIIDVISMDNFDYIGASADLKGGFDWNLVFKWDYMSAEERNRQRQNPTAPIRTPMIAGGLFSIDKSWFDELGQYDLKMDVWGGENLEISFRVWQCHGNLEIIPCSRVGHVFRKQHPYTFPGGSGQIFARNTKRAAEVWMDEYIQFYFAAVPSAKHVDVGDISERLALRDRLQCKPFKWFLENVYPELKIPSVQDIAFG

## O=c1ccn([C@@H]2O[C@H](COP(=O)(O)OP(=O)(O)O)[C@@H](O)[C@H]2O)c(=O)[nH]1 [UDP]
[1]
  activity at 0.05-0.75 mM UDP: No significant differences between the enzyme expressed with lectin domain and the version without
[2]
  activity at 0.05-0.75 mM UDP: Only for UDP an inhibition effect was experimentally observed.

Source: PMC6994419, “UDP-N-acetyl-α-D-galactosamine:polypeptide N-acetylgalactosaminyltransferase from the snail Biomphalaria glabrata – structural reflections” (Glycoconjugate Journal, 2019)
